Measurements from patent publication US20230137491A1, “PEPTIDES AND USES THEREOF” (SINTICA BIOTECH SOCIETÀ A RESPONSABILITÀ LIMITATA …, priority 2020, published 2023).
Non-standard residues stand in square brackets, D forms with d.

What was measured:
[1] = tested on: melanoma cell lines (WM115, WM266-4, SKmel28, WM793B, 1205Lu); test: MTT assay in melanoma cell lines; type: cell-based, human; details: for proliferation (MTT assay) with NSAID: WM115, WM266-4 and SKMEL28, increasing concentrations, 48 hrs
Experimental: 5×10^3 cells/well were seeded in 96-well culture plates. At different time points, cells were incubated with 0.5% MTT (3-(4,5-dimethylthiazol-2-yl)-2,5-diphenyltetrazolium bromide) for 4 h at 37° C. and then dissolved with 100 μl Isopropanol with 0.04N HCl. The plate was read at 560 nm with a reference filter of 650 nm. Results are expressed as viability percentage, as compared to control.
Five melanoma cell lines were used for testing the efficacy of XYZ or its non-PEGylated peptide component: WM115 and WM266-4, which are respectively the primary and metastatic melanoma derived from the same patient and expressing high levels of CD271, and SKme128, a metastatic melanoma cell line expressing low levels of CD271, WM793B, a primary melanoma, and 1205Lu derived from lung metastatic melanoma. The viability of the cell culture is assessed by MTT conversion. MTT solution is applied to the plates and placed into a cell culture incubator for 4 hours. The blue formazan metabolite produced by viable cells is then extracted into isopropanol and absorbance is measured at 570 nm using a spectrophotometer.

[2] = tested on: CD271 expression in melanoma cell lines; test: CD271 protein expression by Western blotting and flow cytometry; type: cell-based, human; details: WM115, WM266-4 and SKMEL28, 1 to 2.5 mM, 48 h treatment
Experimental: FIG. 7. Chemotherapy up-regulates CD271 in primary and metastatic melanoma cell lines. (A) A real-time PCR using primers for intra- and extracellular CD271 receptor was performed on RNA extracts from three melanoma cell lines after treatment with carmustine (BCNU), cisplatin, dacarbazine (DTIC) or diluent. (B) Protein extracts from the three melanoma cell lines treated with different doses of cisplatin, carmustine, dacarbazine or diluent were separated on polyacrylamide gel and transferred onto nitrocellulose membranes. (C) Melanoma cell lines were treated with the chemotherapy or the diluent (see above) stained with anti CD271 mAb and analysed by flow cytometry.
FIG. 13. Non-steroid anti-inflammatory drugs (NSAID) enhance CD271 levels in melanoma cell lines. Three melanoma cell lines were treated with increasing doses of ketoprofen (A) or ibuprofen (B) and the percentage of CD271 positive cells was measured by flow cytometry.
Melanoma cell lines were treated with the chemotherapy or the diluent for 48 h, then were harvested and incubated with anti CD271 antibody (1:100 in PBS, Lab Vision Corporation, Thermo Fisher Scientific, Fremont, Calif., USA) for 20 min at 4° C. Cells were labeled with secondary antibody Alexa Fluor anti-mouse 488 (1:50, Thermo Fisher Scientific) for 20 min at 4° C. and analyzed with Epics XL flow cytometer (Beckman Coulter). […]

| Compound | proliferation (MTT assay) with NSAID [1] | CD271 protein levels (percentage of CD271 positive cells, flow cytometry) [2] | cell proliferation (MTT assay) ([1]; five melanoma cell lines, 48 h and 96 h after treatment, no significant difference between PEGylated and non-PEGylated form) |
| --- | --- | --- | --- |
| CC(C)Cc1ccc(C(C)C(=O)O)cc1 (centres unmarked) [ibuprofen, reference compound] | dose-dependently decreases proliferation | increased CD271 protein levels | – |
| CC(C(=O)O)c1cccc(C(=O)c2ccccc2)c1 (centres unmarked) [ketoprofen, reference compound] | dose-dependently decreases proliferation | increased CD271 protein levels | – |
| Ac-[dM][dL]G[dI][dI][dA]G[dK][dN][dS]G-NH2 [non-PEGylated peptide] | – | – | reduce cell proliferation |
